In patent US10010538B2, “Use of anthelmintic agents against Dirofilaria immitis” (Intervet Inc., priority 2014, dated 2018):

Experiments:
D. immitis microfilariae = test: Activity against D. immitis microfilariae (viability after 3 days incubation); type: cell-based; conditions: Dirofilaria immitis, in Canis lupus familiaris, 72 h, read-out: Microfilaricidal activity, half maximal effective concentration (EC50)
L4 larvae of D. immitis = test: microbe, parasite or virus in culture; type: cell-based; conditions: Dirofilaria immitis, 72 h, read-out: MIC100, lowest dose that results in complete loss of motility

Row | SMILES | EC50 (D. immitis microfilariae) [µM] | MIC (L4 larvae of D. immitis) [µM]
1 | O=C(CO[C@H]1CC[C@H](Nc2ccc([N+](=O)[O-])c(C(F)(F)F)c2)CC1)N1CCC(Oc2ccc(OC(F)(F)F)cc2)CC1 [Example 266] | < 5 | < 10
2 | O=C(CO[C@H]1CC[C@H](Nc2ccc([N+](=O)[O-])c(C(F)(F)F)c2)CC1)N1CCC(Nc2ccc(C(F)(F)F)cc2)CC1 [Example 267] | < 10 | < 10
